The text below walks through data of patent US10828326B2, “Compositions and methods for treating and preventing venom related poisoning” (priority 2015, dated 2020).

One series has as its system C. atrox venom. In words: Isolated venom exposure to FeCl3, CORM-2 or iCORM-2, then thrombelastography in human plasma (Example VI). The format is biochemical, Crotalus atrox. Conditions: in words. On the procedure: C. atrox venom was obtained from the National Natural Toxins Research Center at Texas A&M University-Kingsville, Tex., USA. Venom was reconstituted in calcium-free phosphate buffered saline (PBS, Sigma-Aldrich, Saint Louis, Mo., USA), and stored at −80° C. Pooled human normal plasma anticoagulated with sodium citrate was obtained from George King Bio-Medical, Overland Park, Kans., USA. Ferric chloride (FeCl3, 99.9% pure), tricarbonyldichlororuthenium (II) dimer (CORM-2), and dimethyl sulfoxide (DMSO) were obtained from Sigma-Aldrich. The final concentrations of FeCl3 (dissolved in PBS) and CORM-2 (dissolved in DMSO) were 0-10 μM and 0-100 μM, respectively; these were the concentrations used in previous works involving the effects of modifying fibrinogen prior to venom exposure in plasma.
To increase the detection of effects of iron/CO on venom activity, the concentration of venom chosen for isolated exposure and for addition to plasma was twice the amount expected to eliminate coagulation based on previous work (see, Nielsen V G, Boyer L V. Iron and carbon monoxide attenuate degradation of plasmatic coagulation by Crotalus atrox venom. Blood Coagul Fibrinolysis. In press). A 1 ml quantity of a 200 μg/ml solution of venom in PBS was prepared for each condition subsequently presented. The conditions were: 1) 1% addition (v/v) of PBS and DMSO to PBS without venom; 2) 1% addition (v/v) of PBS and DMSO to PBS with venom; 3) 1% addition of FeCl3 and CORM-2 to PBS without venom; 4) 1% addition of FeCl3 and CORM-2 to PBS […]) 1% addition of FeCl3 and DMSO to PBS with venom; 6) 1% addition of CORM-2 to PBS with venom; and lastly, 7) 1% addition of PBS and iCORM-2 to PBS with venom. After 3 min of incubation at room temperature, 3.6 μl of solution from one of these conditions was placed into 326 μl of plasma and 10 μl of tissue factor reagent (0.1% final concentration in distilled water; Diagnostica Stago S.A.S., Asnieres sur Seine, France) in a disposable cup in a computer-controlled Thrombelastograph® hemostasis system (Model 5000, Haemonetics Inc., Braintree, Mass., USA). After test solution addition, 20 μl of 200 mM CaCl2 was immediately added to initiate clotting. Data were collected at 37° C. for 15 min. […] 2014; 25(8):801-805) were determined: time to maximum rate of thrombus generation (TMRTG): this is the time interval (min) observed prior to maximum speed of clot growth; maximum rate of thrombus generation (MRTG): this is the maximum velocity of clot growth observed (dynes/cm^2/sec); and total thrombus generation (TTG, dynes/cm^2), the final viscoelastic resistance observed after clot formation. […]

For series [1] the following is noted: rabbit ear-bleed model; CORM-2 injected at 10 mg/kg (equivalent to 279 μM final concentration); cited from earlier work.
The subject of series [2] is Crotalus atrox venom-enhanced tissue-type plasminogen activator initiated fibrinolysis. In words: Thrombelastography of human plasma pretreated with iron and/or CO before venom exposure in the presence of tPA (Example II). The format is biochemical. Conditions: 100 IU/ml tPA; for time to maximum rate of thrombus generation (TMRTG): 100 μM CORM-2. The method, then:
Two hundred mg of lyophilized, pooled venom was obtained from four western diamondback rattlesnakes (Crotalus atrox) for experimentation. Venom was reconstituted in calcium-free phosphate buffered saline (PBS, Sigma-Aldrich, Saint Louis, Mo., USA) at a concentration of 20 mg/ml, aliquoted, and then stored at −80° C. until experimentation at the University of Arizona.
Pooled normal plasma (George King Bio-Medical, Overland Park, Kans., USA) anticoagulated with sodium citrate was rapidly thawed at 37° C. and used for experimentation. To assess the effects of pretreatment of antifibrinolytic plasma proteins with iron, CO, or both, 1% additions of PBS, ferric chloride (FeCl3, 99.9% pure, Sigma-Aldrich, Saint Louis, Mo., USA) in PBS, or CORM-2 (tricarbonyldichlororuthenium (II) dimer, a CO releasing molecule, Sigma-Aldrich, Saint Louis, Mo., USA) dissolved in dimethyl sulfoxide (DMSO, Sigma-Aldrich, Saint Louis, Mo., USA) were used. […] Plasma was exposed to these various agents for at least 5 min prior to incubations with venom.
The final volume for all subsequently described plasma sample mixtures was 359.4 μl. Sample composition consisted of […] of plasma; 10 μl of tissue factor reagent (0.1% final concentration in distilled water; Diagnostica Stago S.A.S., Asnieres sur Seine, France), 10 μl of tissue type plasminogen activator (tPA, 580 IU/μg, Genentech, Inc., San Francisco, Calif., USA; 100 IU/ml final concentration) and 3.4 μl of PBS or venom (final concentration 0.5-2.0 μg/ml). […] The aforementioned plasma and venom mixtures were placed in a disposable cup in a computer-controlled Thrombelastograph® hemostasis system (Model 5000, Haemoscope Corp., Niles, Ill., USA) and incubated for 5 min at 37° C., with addition of 20 μl of 200 mM CaCl2) as the last step to initiate clotting. Data were collected at 37° C. until clot lysis time (CLT) was observed. The following elastic modulus-based parameters previously described (see, Nielsen V G, Pretorius E. Blood Coagul Fibrinolysis 2014; 25:695-702) were determined: time to maximum rate of thrombus generation (TMRTG): this is the time interval (min) observed prior to maximum speed of clot growth; maximum rate of thrombus generation (MRTG): this is the maximum velocity of clot growth observed (dynes/cm^2/sec); total thrombus generation (TTG, dynes/cm^2), the final viscoelastic resistance observed after clot formation; time to maximum rate of lysis (TMRL, min), maximum rate of lysis (MRL, dynes/cm^2/sec) and CLT (min). Lastly, to assess if venom had thrombolytic properties that were tPA independent, n=4 replicates were performed wherein no tPA was added and data were collected for 3 h.
Data are presented as mean±SD. All conditions unless otherwise indicated were represented by n=8 replicates. This number of replicates reliably provides a statistical power>0.8 for P<0.05 (see, Nielsen V G, Pretorius E. Blood Coagul Fibrinolysis 2014; 25:695-702). A commercially available statistical program was used for two-way analysis of variance (ANOVA) to assess interactions of venom and tPA on coagulation kinetics and interactions of iron and CO on venom-enhanced fibrinolysis (SigmaStat 3.1, Systat Software, Inc., San Jose, Calif., USA). Additional one-way ANOVA followed by Holm-Sidak post hoc analyses were performed to assess differences between the conditions. Graphics depicting viscoelastic data were generated with a commercially available program (OrigenPro 7.5, OrigenLab Corporation, Northampton, Mass., USA).

Another series concerns Crotalus atrox venom. The experiment in a line: Thrombelastography of human plasma pretreated with iron and/or CO, then incubated with Crotalus atrox venom (Example I). The format is biochemical. Conditions: 0.5 μg/ml venom, 5 min incubation. On the procedure: (§1) Two-hundred mg of lyophilized, pooled venom was obtained from four western diamondback rattlesnakes (Crotalus atrox) for experimentation. Venom was reconstituted in calcium-free phosphate buffered saline (PBS, Sigma-Aldrich, Saint Louis, Mo., USA) at a concentration of 20 mg/ml, aliquoted, and then stored at −80° C. until experimentation at the University of Arizona. Pooled human normal plasma (George King Bio-Medical, Overland Park, Kans., USA) anticoagulated with sodium citrate was rapidly thawed at 37° C. and used for experimentation. To assess the effects of pretreatment of fibrinogen with iron, CO, or both, 1% additions of PBS, ferric chloride (FeCl3, 99.9% pure, Sigma-Aldrich, Saint Louis, Mo., USA) in PBS, or CORM-2 (tricarbonyldichlororuthenium (II) dimer, a CO releasing molecule, Sigma-Aldrich, Saint Louis, Mo., USA) dissolved in dimethyl sulfoxide (DMSO, Sigma-Aldrich, Saint Louis, Mo., USA). The final concentrations of FeCl3 and CORM-2 were 10 μM and 100 μM, respectively; these concentrations are associated with nearly maximal augmenting effects on coagulation kinetics (see, Nielsen V G, et al., Blood Coagul Fibrinolysis 2014; 25:695-702). Plasma was exposed to these various agents for at least 5 min prior to incubations with venom.
(§2) The final volume for all subsequently described plasma sample mixtures was 359.4 μl. Sample composition consisted of 326 μl of plasma; 10 μl of tissue factor reagent (0.1% final concentration in distilled water; Diagnostica Stago S.A.S., Asnieres sur Seine, France) and 3.4 μl of PBS or venom (final concentration 0.5 μg/ml). […] The aforementioned plasma and venom mixtures were placed in a disposable cup in a computer-controlled Thrombelastograph® hemostasis system (Model 5000, Haemoscope Corp., Niles, Ill., USA) and incubated for 5 or 20 min at 37° C., with addition of 20 μl of 200 mM CaCl2) as the last step to initiate clotting. Data were collected at 37° C. for 15 min after 5 min of incubation, whereas samples incubated with venom for 20 min had data collected for 30 min, given the prolonged onset of coagulation and diminished rate of thrombus formation. The following elastic modulus-based parameters previously described (see, Nielsen, et al., 2014, Blood Coagul. Fibrinolysis 25:695-702; Nielsen, et al., 2011, Blood Coagul. Fibrinolysis 22: 443-447); Nielsen V G, et al., Blood Coagul Fibrinolysis 2014; 25:845-850) were determined: time to maximum rate of thrombus generation (TMRTG): this is the time interval (min) observed prior to maximum speed of clot growth; maximum rate of thrombus generation (MRTG): this is the maximum velocity of clot growth observed (dynes/cm^2/sec); and total thrombus generation (TTG, dynes/cm^2), the final viscoelastic resistance observed after clot formation.
(§3) Data are presented as mean+SD. A commercially available statistical program was used for one-way analysis of variance followed by Holm-Sidak post hoc analyses (SigmaStat 3.1, Systat Software, Inc., San Jose, Calif., USA). Graphics depicting viscoelastic data were generated with a commercially available program (OrigenPro 7.5, OrigenLab Corporation, Northampton, Mass., USA; CorelDRAW12, Corel Corporation, Mountain View, Calif., USA).

The next series has as its system human plasma. In words: Thrombelastography of venom naïve human plasma with iron and/or CO addition (Example I). Format: biochemical. The conditions noted are these: baseline (venom naïve); 10 μM FeCl3 and/or 100 μM CORM-2; compared to plasma without any additions. On the procedure:
as §1, §2, §3

Setting [3] is: 10 μM ferric chloride or 100 μM CORM-2, vs matched samples without or with venom exposure (0.5 μg/ml).

With `[C-]#[O+].[C-]#[O+].[C-]#[O+].[C-]#[O+].[C-]#[O+].[C-]#[O+].[Cl][Ru][Cl].[Cl][Ru][Cl]` [CORM-2, tricarbonyldichlororuthenium (II) dimer], the “effects on C. atrox venom activity on plasmatic coagulation” value in the series with C. atrox venom (isolated venom exposure) was “completely inhibited”. Moreover, in the series with C. atrox venom (venom 2 μg/ml final, 10 μM FeCl3, 100 μM CORM-2 or iCORM-2), the “coagulation kinetic parameters of plasma after addition of PBS with venom exposed to the agent” value is “not different from PBS/DMSO exposed plasma”. Besides, in series [1], the adverse effects result is listed as “without adverse effects noted”. For the same molecule, the “maximum rate of lysis (MRL)” value in series [2] (100 μM CORM-2 addition followed by venom exposure (0.5 μg/ml)) is “reduced MRL to control values”; in series [2] (100 μM CORM-2 addition, without venom), “significantly increased”.

Turning to “tricarbonyldichlororuthenium (II) dimer [CORM-2]”, the “maximum rate of thrombus generation (MRTG), change on venom exposure” value with Crotalus atrox venom (vs matched venom naïve samples) is “significantly decreased”. Also, the entries for the “maximum rate of thrombus generation (MRTG)” value (in the series with Crotalus atrox venom (vs plasma without additions exposed to venom); in series [2] (setting [3]); in the series on human plasma) were “significantly greater”, “significantly greater” and “significant increase”, respectively. Also, the “clot strength (TTG)” value in the series with Crotalus atrox venom (vs samples without CO added) is given as “significantly greater”. For the same molecule, in series [2] (setting [3]), the “clot lysis time (CLT)” value was “significantly greater”. For the same molecule, the “time to maximum rate of lysis (TMRL)” value in series [2] (setting [3]) is recorded as “significantly greater”. The “total thrombus generation (TTG)” value in series [2] (setting [3]) is given as “greater”; with human plasma, “significant increase”. Further, the “time to maximum rate of thrombus generation (TMRTG)” value is given as “significantly less” in series [2] (venom exposed plasma (0.5 μg/ml)), “did not significantly affect” in series [2] (venom naïve samples) and “no change” in the series with human plasma.
